Data published in patent publication US12116388B2, “Amylin receptor agonists” (Novo Nordisk A/S, priority 2022, dated 2024).
Starred links: 1 amine or outer side, 2 acyl side, 3 side chain; linkers in the order of their positions; H or OH if unused. Residues, ends and D or L forms follow the SMILES beside them. *: point of attachment. C18 diacid = O=C(O)CCCCCCCCCCCCCCCCC(=O)*; γGlu = O=C(O)[C@H](CCC(=O)[*:2])N[*:1]

Assays:
[1] = Oral pharmacokinetic profiles in Beagle dogs (SNAC tablets); type: in vivo; details: oral tablet: 3 mg compound, 300 mg SNAC, 7.7 mg magnesium stearate; for half-life: male, dog, plasma, read-out: T½ (converted)
Protocol: To be able to evaluate oral exposure following tablet dosing, tablet compositions comprising the test substance and SNAC (sodium N-(8-(2-hydroxybenzoyl)amino)caprylate) were prepared by mixing test substance with roller compacted SNAC and magnesium stearate as, e.g., described in WO 2019/149880.
This assay was performed to measure the oral bioavailability of a compound. The assay determined the exposure of test compound following oral administration in Beagle dogs as described by relevant pharmacokinetic parameters and plasma concentration curves.
Preparation of tablets for oral administration: tablets containing test compound used for the assay described herein were immediate release SNAC-based tablets. The test compound was spray-dried as neutral sodium salt (pH 7-8). Dry granulation was carried out by roller compaction on a Gerteis MINI-PACTOR. Tablets containing 3 mg test compound, 300 mg sodium N-(8-(2-hydroxybenzoyl)amino)caprylate (SNAC) and 7.7 mg magnesium stearate were produced on at Kilian Style One using 7.2×12 mm punches.
Determination of the absorption following oral administration: eight (8) male Beagle dogs, 1 to 8 years of age and weighing approximately 10-15 kg at the start of the studies, were used. The dogs were group-housed in pens (12 hours light:12 hours dark), and fed individually and restrictedly once daily with Royal Canin Medium Adult dog (Royal Canin Products, China Branch, or Brogaarden A/S, Denmark). Exercise and group social were permitted daily, whenever possible. The dogs were used for repeated pharmacokinetic studies with a suitable wash-out period between successive dosing. An appropriate acclimatisation period was given prior to initiation of the first pharmacokinetic study. All handling, dosing and blood sampling of the animals were performed by trained and skilled staff. Before the studies the dogs were fasted overnight and from 0 to 4 h after dosing. Besides, the dogs were restricted to water 1 hour before dosing until 4 hours after dosing, but otherwise had ad libitum access to water during the whole period.
Tablets containing the test compound were administered in the following manner: 10 min prior to tablet administration the dogs were dosed subcutaneously with approximately 3.2 nmol/kg of glucagon. The tablets were placed in the back of the mouth of the dog to prevent chewing. The mouth was then closed, and 10 mL of tap water was given by a syringe to facilitate swallowing of the tablet. Blood was sampled at predefined time points for up till 288 hours after dosing to adequately cover the full plasma concentration-time absorption profile of the compound. For each blood sampling time point approximately 1.2 mL of whole blood was collected in a 1.5 mL EDTA coated tube, and the tube was gently turned to allowing mixing of the sample with the EDTA. Then, the blood samples were kept on ice until centrifugation (4 min, 4° C., 4000 rpm). Plasma was pipetted into Micronic tubes on dry ice and kept at −20° C. until analysis. Blood samples were taken as appropriate, for example from a venflon in the cephalic vein in the front leg for the first 2 hours and then with syringe from the jugular vein for the rest of the time points (the first few drops were allowed to drain from the venflon to avoid heparin saline from the venflon in the sample).
Bioanalysis was carried out as follows: plasma concentrations of test compound were assayed by plasma protein precipitation and analysed by liquid chromatography-mass spectrometry (LC-MS). Calibrators were prepared by spiking blank dog plasma with analytes to reach the final concentrations in the range typically from 0.5 to 200 nM. Calibrators, plasma blanks or study samples were prepared for LC-MS by protein precipitation by adding 3 volumes of ethanol followed by centrifugation at 4000 rpm at 4° C. for 1 h. The supernatant was diluted with 2 volumes of Milli-Q water containing 0.1% formic acid before injection on the LC-MS system. […]

[2] = target: T1, human amylin receptor (hAMYR3) (Homo sapiens, UniProt O60896+P30988); assay: Human amylin receptor (hAMYR3) in vitro potency assay, CRE-luciferase reporter in BHK cells; type: cell-based; details: BHK hAMYR3/CRE-Luc cells, 3 hours incubation, assay buffer with 1% ovalbumin
T1 construct: host or cells: BHK (Baby Hamster Kidney), Hollex-1 cell line further transfected with RAMP3
T1 sequence (P30988 25-474): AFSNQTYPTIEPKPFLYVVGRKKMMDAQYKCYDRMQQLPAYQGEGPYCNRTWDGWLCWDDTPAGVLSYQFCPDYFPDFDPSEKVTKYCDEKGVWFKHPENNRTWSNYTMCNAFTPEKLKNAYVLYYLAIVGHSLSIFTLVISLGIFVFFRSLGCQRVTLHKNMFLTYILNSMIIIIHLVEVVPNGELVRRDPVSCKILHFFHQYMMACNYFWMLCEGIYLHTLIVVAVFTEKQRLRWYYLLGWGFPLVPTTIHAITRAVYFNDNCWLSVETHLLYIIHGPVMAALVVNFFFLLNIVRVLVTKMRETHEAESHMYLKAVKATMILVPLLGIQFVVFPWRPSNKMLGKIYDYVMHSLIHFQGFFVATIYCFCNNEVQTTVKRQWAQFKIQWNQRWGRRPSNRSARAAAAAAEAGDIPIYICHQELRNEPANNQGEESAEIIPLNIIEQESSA
T1 sequence (O60896 24-148): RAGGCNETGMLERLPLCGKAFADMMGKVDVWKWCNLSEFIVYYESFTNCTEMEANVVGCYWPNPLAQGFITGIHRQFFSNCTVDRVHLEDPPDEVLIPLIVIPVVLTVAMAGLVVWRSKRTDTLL
Method in brief: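 BHK cells stably expressing human calcitonin receptor (a) plus RAMP3 and a CRE-luciferase reporter, seeded overnight, then exposed to 7-point 7-fold dilutions (often from ~10 nM) in DMEM/HEPES buffer with 1% ovalbumin for 3 h at 37 °C. Luciferase luminescence read after SteadyLite Plus addition.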

Structure (SMILES)	half-life [1]	AUC/D [1]	Cmax/D [1]	EC50 [2]
CC[C@H](C)[C@H](NC(=O)[C@@H]1CCCN1C(=O)CNC(=O)[C@H](Cc1ccccc1)NC(=O)[C@H](CC(N)=O)NC(=O)[C@H](CC(=O)O)NC(=O)[C@H](CO)NC(=O)[C@H](CO)NC(=O)[C@H](Cc1c[nH]cn1)NC(=O)[C@H](Cc1c[nH]cn1)NC(=O)[C@H](CC(C)C)NC(=O)[C@H](Cc1ccccc1)NC(=O)[C@H](CCC(=O)O)NC(=O)[C@H](C)NC(=O)[C@H](CC(C)C)NC(=O)[C@H](CCCNC(=N)N)NC(=O)[C@H](C)NC(=O)[C@@H](NC(=O)[C@H](CCC(N)=O)NC(=O)[C@H](C)NC(=O)[C@@H](NC(=O)[C@H](CO)NC(=O)[C@H](CC(C)C)NC(=O)[C@H](Cc1c[nH]cn1)NC(=O)[C@H](CO)NC(=O)[C@H](C)NC(=O)CC[C@H](NC(=O)CCCCCCCCCCCCCCCCC(=O)O)C(=O)O)[C@@H](C)O)[C@@H](C)O)C(=O)N[C@@H](CC(C)C)C(=O)N1CCC[C@H]1C(=O)N1CCC[C@H]1C(=O)N[C@H](C(=O)N[C@@H](CC(=O)O)C(=O)N[C@H](C(=O)NCC(=O)N[C@@H](CO)C(=O)N[C@@H](CC(N)=O)C(=O)N[C@H](C(=O)N1CCC[C@H]1C(N)=O)[C@@H](C)O)C(C)C)[C@@H](C)O [Compound 14, N^1-[(4S)-4-carboxy-4-(17-carboxyheptadecanoylamino)butanoyl]-[Ala1,Ser2,His3,Leu4,Ser5,Ala7,Gln8,Ala10,Glu14,His17,Asp21,Pro25,Pro28,Pro29,Asp31,Pro37]-human amylin] ({C18 diacid-γGlu}-ASHLSTAQTARLAEFLHHSSDNFGPILPPTDVGSNTP-NH2)	113 h	20.76 kg·h/L	0.34 kg/L	1.28 pM
CC[C@H](C)[C@H](NC(=O)[C@@H]1CCCN1C(=O)CNC(=O)[C@H](Cc1ccccc1)NC(=O)[C@H](Cc1c[nH]cn1)NC(=O)[C@H](Cc1c[nH]cn1)NC(=O)[C@H](CC(C)C)NC(=O)[C@H](Cc1ccccc1)NC(=O)[C@H](CCC(=O)O)NC(=O)[C@H](C)NC(=O)[C@H](CC(C)C)NC(=O)[C@H](CCCNC(=N)N)NC(=O)[C@H](C)NC(=O)[C@@H](NC(=O)[C@H](CCC(N)=O)NC(=O)[C@H](C)NC(=O)[C@@H](NC(=O)[C@H](CO)NC(=O)[C@H](CC(C)C)NC(=O)[C@H](CCC(=O)O)NC(=O)CNC(=O)[C@H](C)NC(=O)CC[C@H](NC(=O)CCCCCCCCCCCCCCCCC(=O)O)C(=O)O)[C@@H](C)O)[C@@H](C)O)C(=O)N[C@@H](CC(C)C)C(=O)N1CCC[C@H]1C(=O)N1CCC[C@H]1C(=O)N[C@H](C(=O)N[C@@H](CC(=O)O)C(=O)N[C@H](C(=O)NCC(=O)N[C@@H](CO)C(=O)N[C@@H](CCC(=O)O)C(=O)N[C@H](C(=O)N1CCC[C@H]1C(N)=O)[C@@H](C)O)C(C)C)[C@@H](C)O [Compound 16, N^1-[(4S)-4-carboxy-4-(17-carboxyheptadecanoylamino)butanoyl]-[Ala1,Gly2,Glu3,Leu4,Ser5,Ala7,Gln8,Ala10,Glu14,His17,Pro25,Pro28,Pro29,Asp31,Glu35,Pro37],des-(19-22)-human amylin] ({C18 diacid-γGlu}-AGELSTAQTARLAEFLHHFGPILPPTDVGSETP-NH2)	95.8 h	35.59 kg·h/L	0.48 kg/L	1.25 pM
CC[C@H](C)[C@H](NC(=O)[C@@H]1CCCN1C(=O)CNC(=O)[C@H](Cc1ccccc1)NC(=O)[C@H](Cc1c[nH]cn1)NC(=O)[C@H](Cc1c[nH]cn1)NC(=O)[C@H](CC(C)C)NC(=O)[C@H](Cc1ccccc1)NC(=O)[C@H](CCC(=O)O)NC(=O)[C@H](C)NC(=O)[C@H](CC(C)C)NC(=O)[C@H](CCCNC(=N)N)NC(=O)[C@H](C)NC(=O)[C@@H](NC(=O)[C@H](CCC(N)=O)NC(=O)[C@H](C)NC(=O)[C@@H](NC(=O)[C@H](CO)NC(=O)[C@H](CC(C)C)NC(=O)[C@H](Cc1c[nH]cn1)NC(=O)[C@H](CO)NC(=O)[C@H](C)NC(=O)CC[C@H](NC(=O)CC[C@H](NC(=O)CCCCCCCCCCCCCCCCC(=O)O)C(=O)O)C(=O)O)[C@@H](C)O)[C@@H](C)O)C(=O)N[C@@H](CC(C)C)C(=O)N1CCC[C@H]1C(=O)N1CCC[C@H]1C(=O)N[C@H](C(=O)N[C@@H](CC(=O)O)C(=O)N[C@H](C(=O)NCC(=O)N[C@@H](CO)C(=O)N[C@@H](CCC(=O)O)C(=O)N[C@H](C(=O)N1CCC[C@H]1C(N)=O)[C@@H](C)O)C(C)C)[C@@H](C)O [Compound 17, N^1-[(4S)-4-carboxy-4-[[(4S)-4-carboxy-4-(17-carboxyheptadecanoylamino)butanoyl]amino]butanoyl]-[Ala1,Ser2,His3,Leu4,Ser5,Ala7,Gln8,Ala10,Glu14,His17,Pro25,Pro28,Pro29,Asp31,Glu35,Pro37],des-(19-22)-human amylin] ({C18 diacid-γGlu-γGlu}-ASHLSTAQTARLAEFLHHFGPILPPTDVGSETP-NH2)	94.8 h	19.7 kg·h/L	0.28 kg/L	1.11 pM
CC[C@H](C)[C@H](NC(=O)[C@@H]1CCCN1C(=O)CNC(=O)[C@H](Cc1ccccc1)NC(=O)[C@H](CC(N)=O)NC(=O)[C@H](CC(=O)O)NC(=O)[C@H](CO)NC(=O)[C@H](CO)NC(=O)[C@H](Cc1c[nH]cn1)NC(=O)[C@H](Cc1c[nH]cn1)NC(=O)[C@H](CC(C)C)NC(=O)[C@H](Cc1ccccc1)NC(=O)[C@H](CCC(=O)O)NC(=O)[C@H](C)NC(=O)[C@H](CC(C)C)NC(=O)[C@H](CCCNC(=N)N)NC(=O)[C@H](C)NC(=O)[C@@H](NC(=O)[C@H](CCC(N)=O)NC(=O)[C@H](C)NC(=O)[C@@H](NC(=O)[C@H](CO)NC(=O)[C@H](CC(C)C)NC(=O)[C@H](CCC(N)=O)NC(=O)[C@H](CO)NC(=O)[C@H](C)NC(=O)CC[C@H](NC(=O)CCCCCCCCCCCCCCCCC(=O)O)C(=O)O)[C@@H](C)O)[C@@H](C)O)C(=O)N[C@@H](CC(C)C)C(=O)N1CCC[C@H]1C(=O)N1CCC[C@H]1C(=O)N[C@H](C(=O)N[C@@H](CC(=O)O)C(=O)N[C@H](C(=O)NCC(=O)N[C@@H](CO)C(=O)N[C@@H](CC(N)=O)C(=O)N[C@H](C(=O)N1CCC[C@H]1C(N)=O)[C@@H](C)O)C(C)C)[C@@H](C)O [Compound 22, N^1-[(4S)-4-carboxy-4-(17-carboxyheptadecanoylamino)butanoyl]-[Ala1,Ser2,Gln3,Leu4,Ser5,Ala7,Gln8,Ala10,Glu14,His17,Asp21,Pro25,Pro28,Pro29,Asp31,Pro37]-human amylin] ({C18 diacid-γGlu}-ASQLSTAQTARLAEFLHHSSDNFGPILPPTDVGSNTP-NH2)	96.6 h	24.43 kg·h/L	0.35 kg/L	1.22 pM
